Reference: article PMC7203245, “Lacosamide intake during pregnancy increases the incidence of foetal malformations and symptoms associated with schizophrenia in the offspring of mice” (Scientific Reports, 2020)

What was measured:
adult male mice [1] = assay: Y maze working memory test; format: in vivo; conditions: mice from dams exposed to LCM vs control
Method: (§1) All trials were performed by an experimenter blind to the drug treatment.
Y maze. The Y maze used had three equal sized arms (8 x 40 x 20 cm), with white opaque walls at a 120° angle from each other. After introduction to the centre of the maze, the mice was allowed to freely explore the three arms during 5 minutes, recording the number of arm entries and the number of triads in order to calculate the alternation. An entry was considered to occur when all four limbs are within the arm. The success of the triplet was taken into account when mice visited the three arms in three consecutive arm entries showing normal novelty preference and working memory.

adult male mice [2] = assay: Object recognition memory; format: in vivo; conditions: 1 hour after the training session; LCM in utero
Method: as §1
Object recognition memory. Mice were tested in a rectangular arena (55 x 40 x 40 cm) situated in a room with dim lighting and constant background noise. The object recognition protocol was described extensively elsewhere^2. Briefly, two equal objects were placed in the arena during a 15 minutes training phase and the animal’s memory of the original object was assessed by comparing the amount of time spent exploring the novel object against that for the familiar one in two sessions (of 10 minutes) performed 1 and 24h after training (for short-term and long-term memories [STM and LTM] respectively). The time spent exploring each object was recorded and the relative exploration of the novel object was expressed by a discrimination index [DI = (tnovel-tfamiliar)/(tnovel+tfamiliar)]. The criteria for exploration were based strictly on active exploration. Exploration of an object was defined as directing the nose toward the object at a distance of 1.5 cm and/or touching the object with the nose or vibrissae. Circling or sitting on the object were not considered exploratory behaviours.

pups = assay: Neonatal behavioural tests of Fox's battery (developmental landmarks, locomotion, reflexes); format: in vivo, mice; conditions: P1 to P13; dams given 40 or 120 mg/kg during gestation
Method: In this part of the study, dams were treated until the day of delivery. After analysing the embryo toxicity data, the treatments were categorized as controls (saline vehicle solution alone), low dose (40 mg/kg) and high dose (120 mg/kg). […] The day of birth was designated as postnatal day (P) P0 and the litter size delivered by each dam was recorded, checking each pup for gross abnormalities. Pups were nursed by their natural dams until weaning and from PD 2, the pups were weighed and neonatal behavioural tests were carried out on 12 control mice, 12 low dose and 10 high dose mice from 7 litters. […]
The animal was placed face up, and the time taken to turn over and adopt a prone position with all four feet on the ground was assessed. […]
A mouse was placed at the edge of the table, with its forepaws and head extending over the edge. The response was scored as positive if the mouse turned around and crawled away at least 45° from the “cliff”. […]
The animal was placed face down on a 30° incline and the latency to turn 180° was recorded. […]
The total number of degrees turned by the pup during a 30 s period was recorded. […] The number of degrees was only scored in terms of completed 90° segments.
The latency of a mouse to walk a distance exceeding its body length on all four legs was measured on a flat surface covered with green paper. […]

adult male mice [3] = assay: Predator test; format: in vivo
Method: as §1
Predator test. The predator test was performed in a rectangular arena (55 x 40 x 40 cm) where a small tube was placed in a corner. The subject mouse was first placed in the area with the empty tube for 5 mins and afterwards, the tube was filled with material from a cage that housed a rat and the mice were allowed to explore the entire fear test box for 10 mins. The time spent by the mice sniffing the tube full of the rat’s material was measured with the aid of the camera fitted to the top of the box.

adult male mice [4] = assay: Dark-light emergence task; format: in vivo; conditions: 40 mg/kg in utero; 5 minutes
Method: as §1
Dark-light emergence task. Anxiety-like behaviour was determined in mice using the dark-light emergence test. Testing was carried out in a white open field (50 x 50 cm) containing a small opaque chamber (12 x 12 cm) situated in the centre. The open field was illuminated by a lamp directed at the centre of the field (120 lux focused on the floor). Mice were moved to the testing room 1 hour prior to behavioural testing and they were introduced into the unfamiliar test environment by placing them into the small chamber and recording their behaviour over 5 minutes with a video camera. The total time spent outside the chamber was then quantified by reviewing the video recording.

adult male mice [5] = assay: Sociability test; format: in vivo
Method: as §1
Sociability test. The social testing apparatus consisted of a rectangular arena (55 x 40 x 40 cm) in which a small, round wire cage (11 cm in height, with a bottom diameter of 9 cm, vertical bars 0.5 cm and horizontal bars spaced 1 cm apart) was placed in a corner, allowing nose contact between the bars but preventing fighting. The subject mouse was first placed in the arena for 5 minutes with the round wire cage empty. After that, a strange mouse was place in the round cage in […] and the subject was allowed to explore the entire social test box for 10 min. The time spent around the empty and occupied cage was measured with the aid of the camera fitted to the top of the box.

## COC[C@@H](NC(C)=O)C(=O)NCc1ccccc1 [LCM, R-2-acetamido-N-benzyl-3-methoxypropionamide]
Adult male mice [1]; p = 0.04
  arm alternation in Y-maze: decrease in alternation
Adult male mice [1]; p = 0.087
  locomotion in Y-maze: mild increase in locomotion
Adult male mice [2]
  short-term memory in object recognition: no effects
pups
  postnatal somatometric development and reflexological analyses (body weight, developmental landmarks, locomotor activity, balance reflexes, suspension test): dose-dependent delay
Adult male mice [3]; 40 mg/kg in utero
  time sniffing the predator's material: 22.85 ± 4.07%
Adult male mice [3]; 120 mg/kg in utero
  time sniffing the predator's material: 22.91 ± 2.08%
Adult male mice [4]
  time spent in the dark compartment (emergence test): 217.2 ± 11.19 s
Adult male mice [5]; 40 mg/kg in utero
  social interaction with a strange mouse (sniffing time): 183.4 ± 11.01 s
Adult male mice [5]; 120 mg/kg in utero
  social interaction with a strange mouse (sniffing time): 172.0 ± 10.78 s
